Data: US20100216751A1 (priority 2007, published 2010)
Values joined by “and” are separate entries in the source; they are usually repeats but may differ in a detail not shown here. Identical values can stand only once.

How the values were obtained:
[1] = Pharmacokinetic evaluation of bevirimat HPβCD formulation, intravenous, male Cynomolgus monkeys
Experimental: Six male Cynomolgus monkeys having an initial body weight of about 3.5 to about 4.5 kg are allowed 7 days to acclimate to their individual housing units. Monkeys are supplied with water and a commercial diet ad libitum prior to the study initiation. Food is withheld from the monkeys for a minimum of twelve hours before the study and during the study until four hours postdose when food is returned. Water is supplied ad libitum.
Test formulations are administered to the monkeys at time 0 on appropriate days. Test formulations will be dosed orally via oral gavage or intravenously.
Samples are drawn at the frequencies indicated below. Each blood sample (0.5 mL) is collected from the monkey's saphenous vein via a butterfly catheter and placed into a chilled polypropylene tube containing sodium heparin as the anticoagulant. Blood samples are centrifuged at a temperature of 4° C. at a speed of 3,000 rpm for 15 minutes. All samples are maintained chilled throughout processing. Plasma is collected after centrifugation, pipetted into a 2-mL polypropylene microtube, and frozen on dry-ice pending analytical evaluation.

[2] = biological target: human serum albumin (Homo sapiens, UniProt P02768); assay: Protein binding to human serum albumin; assay type: in vitro ADME
human serum albumin, sequence (P02768 25-609): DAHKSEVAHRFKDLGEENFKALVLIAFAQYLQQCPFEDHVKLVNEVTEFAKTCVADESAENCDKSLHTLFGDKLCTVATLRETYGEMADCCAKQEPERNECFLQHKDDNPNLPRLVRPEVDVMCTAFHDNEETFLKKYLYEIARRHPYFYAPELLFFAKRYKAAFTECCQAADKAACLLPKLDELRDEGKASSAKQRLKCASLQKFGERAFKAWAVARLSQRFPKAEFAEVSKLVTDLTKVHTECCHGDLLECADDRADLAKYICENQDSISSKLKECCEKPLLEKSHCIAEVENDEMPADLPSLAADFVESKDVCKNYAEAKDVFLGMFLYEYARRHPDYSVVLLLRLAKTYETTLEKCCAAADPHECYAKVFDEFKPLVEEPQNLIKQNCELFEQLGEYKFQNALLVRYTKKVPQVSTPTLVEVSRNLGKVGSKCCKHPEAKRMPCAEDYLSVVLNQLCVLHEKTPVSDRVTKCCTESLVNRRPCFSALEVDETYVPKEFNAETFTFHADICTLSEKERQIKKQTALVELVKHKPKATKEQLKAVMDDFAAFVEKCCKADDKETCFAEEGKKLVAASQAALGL

[3] = Solubility of bevirimat and bevirimat dimeglumine in single vehicles; conditions: in 100% water, 100% saline, 100% dextrose, 100% PEG 400, and 25% Poloxamer 188
[4] = 2.5 mg FAE/mL in 10% HPβCD+3% Mannitol in water, 10 mg FAE/monkey intravenous injection, monkeys 115,116,120,AVG
[5] = male, cynomolgus monkey, plasma, iv, 10 mg

## C=C(C)[C@@H]1CC[C@]2(C(=O)O)CC[C@]3(C)[C@H](CC[C@@H]4[C@@]5(C)CC[C@H](OC(=O)CC(C)(C)C(=O)O)C(C)(C)[C@@H]5CC[C@]43C)[C@@H]12 [Bevirimat, 3-O-(3′,3′-dimethylsuccinyl)betulinic acid]
[1]; [4]
  AUCall: 81.549 µg·h/mL and 84.743 µg·h/mL
  C0: 54.673 µg/mL and 39.4 µg/mL
  CL: 0.023 L/h/kg and 0.032 L/h/kg and 0.025 L/h/kg
  Dnzed AUCall: 46879 ng·h/mL/mg/kg and 41590 ng·h/mL/mg/kg and 31505 ng·h/mL/mg/kg and 39991 ng·h/mL/mg/kg
  t1/2: 24.7 h and 15.5 h and 18.3 h
[1]; 0.033 hr, 2.5 mg FAE/mL in 10% HPβCD+3% Mannitol in water, 10 mg FAE/monkey intravenous injection, monkeys 115,116,120,AVG
  Plasma Concentration: 39.4 µg/mL
[1]; 0.25 hr, 2.5 mg FAE/mL in 10% HPβCD+3% Mannitol in water, 10 mg FAE/monkey intravenous injection, monkeys 115,116,120,AVG
  Plasma Concentration: 41.6 µg/mL and 23.1 µg/mL and 32.333 µg/mL
[1]; 0.50 hr, 2.5 mg FAE/mL in 10% HPβCD+3% Mannitol in water, 10 mg FAE/monkey intravenous injection, monkeys 115,116,120,AVG
  Plasma Concentration: 19.8 µg/mL and 14.8 µg/mL and 19.967 µg/mL
[1]; 1.0 hr, 2.5 mg FAE/mL in 10% HPβCD+3% Mannitol in water, 10 mg FAE/monkey intravenous injection, monkeys 115,116,120,AVG
  Plasma Concentration: 20.2 µg/mL and 11.7 µg/mL and 18.233 µg/mL
[1]; 12 hr, 2.5 mg FAE/mL in 10% HPβCD+3% Mannitol in water, 10 mg FAE/monkey intravenous injection, monkeys 115,116,120,AVG
  Plasma Concentration: 0.384 µg/mL and 0.404 µg/mL and 0.517 µg/mL
[1]; 24 hr, 2.5 mg FAE/mL in 10% HPβCD+3% Mannitol in water, 10 mg FAE/monkey intravenous injection, monkeys 115,116,120,AVG
  Plasma Concentration: 0.367 µg/mL and 0.245 µg/mL and 0.32 µg/mL
[1]; 48 hr, 2.5 mg FAE/mL in 10% HPβCD+3% Mannitol in water, 10 mg FAE/monkey intravenous injection, monkeys 115,116,120,AVG
  Plasma Concentration: 0.148 µg/mL and 0.081 µg/mL and 0.121 µg/mL
[1]; 72 hr, 2.5 mg FAE/mL in 10% HPβCD+3% Mannitol in water, 10 mg FAE/monkey intravenous injection, monkeys 115,116,120,AVG, BLOQ=below 50 ng/mL
  Plasma Concentration: BLOQ
[1]; male, cynomolgus monkey, in vivo, iv, 10 mg FAE/monkey, Plasma concentration, 0.033 hr, 2.5 mg FAE/mL in 10% HPβCD+3% Mannitol in water, 10 mg FAE/monkey intravenous injection, monkeys 115,116,120,AVG
  concentration at 0.033 hr: 50.6 µg/mL
[1]; male, cynomolgus monkey, in vivo, iv, 10 mg FAE/monkey, Plasma concentration, 0.25 hr, 2.5 mg FAE/mL in 10% HPβCD+3% Mannitol in water, 10 mg FAE/monkey intravenous injection, monkeys 115,116,120,AVG
  concentration at 0.25 hr: 32.3 µg/mL
[1]; male, cynomolgus monkey, in vivo, iv, 10 mg FAE/monkey, Plasma concentration, 0.50 hr, 2.5 mg FAE/mL in 10% HPβCD+3% Mannitol in water, 10 mg FAE/monkey intravenous injection, monkeys 115,116,120,AVG
  concentration at 0.5 hr: 25.3 µg/mL
[1]; male, cynomolgus monkey, in vivo, iv, 10 mg FAE/monkey, Plasma concentration, 1.0 hr, 2.5 mg FAE/mL in 10% HPβCD+3% Mannitol in water, 10 mg FAE/monkey intravenous injection, monkeys 115,116,120,AVG
  concentration at 1 hr: 22.8 µg/mL
[1]; male, cynomolgus monkey, in vivo, iv, 10 mg FAE/monkey, Plasma concentration, 12 hr, 2.5 mg FAE/mL in 10% HPβCD+3% Mannitol in water, 10 mg FAE/monkey intravenous injection, monkeys 115,116,120,AVG
  concentration at 12 hr: 0.762 µg/mL
[1]; male, cynomolgus monkey, in vivo, iv, 10 mg FAE/monkey, Plasma concentration, 24 hr, 2.5 mg FAE/mL in 10% HPβCD+3% Mannitol in water, 10 mg FAE/monkey intravenous injection, monkeys 115,116,120,AVG
  concentration at 24 hr: 0.347 µg/mL
[1]; male, cynomolgus monkey, in vivo, iv, 10 mg FAE/monkey, Plasma concentration, 48 hr, 2.5 mg FAE/mL in 10% HPβCD+3% Mannitol in water, 10 mg FAE/monkey intravenous injection, monkeys 115,116,120,AVG
  concentration at 48 hr: 0.134 µg/mL
[1]; male, cynomolgus monkey, in vivo, iv, 10 mg, AUCall, 2.5 mg FAE/mL in 10% HPβCD+3% Mannitol in water, 10 mg FAE/monkey intravenous injection, monkeys 115,116,120,AVG
  AUC: 114 µg·h/mL
[1]; male, cynomolgus monkey, in vivo, iv, 10 mg, C0, 2.5 mg FAE/mL in 10% HPβCD+3% Mannitol in water, 10 mg FAE/monkey intravenous injection, monkeys 115,116,120,AVG
  C0: 54.2 µg/mL
[1]; male, cynomolgus monkey, in vivo, iv, 10 mg, t1/2, 2.5 mg FAE/mL in 10% HPβCD+3% Mannitol in water, 10 mg FAE/monkey intravenous injection, monkeys 115,116,120,AVG
  half-life: 14.7 h
[1]; [5]
  AUC: 58.3 µg·h/mL
  C0: 49.4 µg/mL
  Tmax: 0 h
[1]; male, cynomolgus monkey, plasma, iv, 10 mg, CL, 2.5 mg FAE/mL in 10% HPβCD+3% Mannitol in water, 10 mg FAE/monkey intravenous injection, monkeys 115,116,120,AVG
  clearance: 0.02 L/h/kg
[2]
  fraction unbound: ≤ 0.01
[3]
  solubility (in words): poorly soluble
